# Test results from US20240173419A1, “CDK2 DEGRADERS AND USES THEREOF” (Kymera Therapeutics, Inc., priority 2022, published 2024).
# Target: T1, CDK2 (Homo sapiens, UniProt P24941)
# T1 construct: endogenous in cells; host or cells: MKN1 cells
# Assay: CDK2 degradation in MKN1 cells (AlphaLISA)
# Type: cell-based
# Design: key to CDK2 degradation 14 h: Mean external-Abs DC50 (nM): A (<100 nM); B (≥100-500 nM); C (>500-1000 nM); D (>1000 nM); E (not achieved)
# Settings: for DC50: read-out: CDK2 degradation 14 h: Mean external-Abs DC50; for Dmax: MKN-1, 14 h incubation
# Summary of the method: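 DC50 from four-parameter logistic fit of AlphaLISA CDK2 signal, corrected for no-cell wells. Lysates came from MKN1 cells, 2e4 per well, exposed 14 h at 37° C to compound at 0.001 nM-10 μM (1:5 series, 11 doses) in 0.1% DMSO.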
Compound,CDK2 degradation 14 h: Average Dmax % (14 h incubation),CDK2 degradation 14 h: Mean external-Abs DC50 (nM) (14 h incubation),DC50 (14 h incubation) [nM],Dmax [%]
Cc1cc(S(=O)(=O)N2CCC(CN(C)C3CN(c4cccc5c4n(C)c(=O)n5C4CCC(=O)NC4=O)C3)CC2)ccc1Nc1ncc2cc(Cl)c(=O)n(C3CCCC3)c2n1 (centres unmarked) [I-422],C (C (>25% -50%)),E,,
Cc1cc(S(=O)(=O)NC(C)COC2CN(CC3CCN(c4ccc5c(c4F)n(C)c(=O)n5C4CCC(=O)NC4=O)CC3)C2)ccc1Nc1ncc(C(F)(F)F)c(C2CCC(C)(O)CC2)n1 (racemic) [I-852],B (B (>50% -75%)),,< 100,
CC1CN(CC2CCN(c3ccc(C4CCC(=O)NC4=O)c(F)c3)CC2)CCC1NS(=O)(=O)c1ccc(Nc2ncc(C(F)(F)F)c(N3CCCC(C)(O)C3)n2)c(F)c1 (centres unmarked) [I-1046],A (A (>75% o)),,< 100,
Cc1cc(S(=O)(=O)NCCO[C@H]2C[C@H](CN3CCC(c4ccc5c(c4)n(C)c(=O)n5C4CCC(=O)NC4=O)CC3)C2)ccc1Nc1ncc2cc(Cl)c(=O)n(C3CCCC3)c2n1 (some centres unmarked) [I-429],A (A (>75% o)),,< 100,
Cc1cc(S(=O)(=O)N2CCN(CCC3CCN(c4cccc5c4n(C)c(=O)n5C4CCC(=O)NC4=O)CC3)CC2)ccc1Nc1ncc2cc(Cl)c(=O)n(C(C)C)c2n1 (centres unmarked) [I-393],B (B (>50% -75%)),,100 to 500,
CC1(O)CCCN(c2nc(Nc3ccc(S(=O)(=O)NC4CCC(CN5CCN(c6ccc(C7CCC(=O)NC7=O)c(Cl)c6)CC5)CC4)cc3C(F)F)ncc2C(F)(F)F)C1 (centres unmarked) [I-1104],A (A (>75% o)),,< 100,
Cc1cc(S(=O)(=O)C2CCN(CCN3CCN(c4cccc5c4n(C)c(=O)n5C4CCC(=O)NC4=O)CC3=O)CC2)ccc1Nc1ncc2cc(Cl)c(=O)n(C3CCCC3)c2n1 (centres unmarked) [I-43],A (A (>75% o)),,100 to 500,
Cc1cc(S(=O)(=O)NC2CC(N3CCN(CC4CCN(c5ccc(Cl)c(C6CCC(=O)NC6=O)c5)CC4)CC3)C2)ccc1Nc1ncc(C(F)(F)F)c(N2CCCC(C)(O)C2)n1 (centres unmarked) [I-715],A (A (>75% o)),,< 100,
Cc1cc(S(=O)(=O)NC2CCC(CN3CCN(c4ccc(C5CCC(=O)NC5=O)c(C)c4F)CC3)CC2)ccc1Nc1ncc(C(F)(F)F)c(N2CCCC(C)(O)C2)n1 (centres unmarked) [I-812],A (A (>75% o)),,< 100,
Cc1cc(S(=O)(=O)NC2CC(N3CCC(F)(CN4CCC(c5cccc6c5n(C)c(=O)n6C5CCC(=O)NC5=O)CC4)CC3)C2)ccc1Nc1ncc(C(F)(F)F)c(N2CCCC(C)(O)C2)n1 (centres unmarked) [I-699],A (A (>75% o)),,< 100,
Cc1cc(S(=O)(=O)NCCO[C@H]2CC[C@H](CN3CC(c4ccc5c(c4)n(C)c(=O)n5C4CCC(=O)NC4=O)C3)CC2)ccc1Nc1ncc2cc(Cl)c(=O)n(C3CCCC3)c2n1 (some centres unmarked) [I-430],A (A (>75% o)),,< 100,
CC1CC(NS(=O)(=O)c2ccc(Nc3ncc(C(F)(F)F)c(N4CCCC(C)(O)C4)n3)c(F)c2)CCN1CC1CCN(c2ccc(C3CCC(=O)NC3=O)c(F)c2)CC1 (centres unmarked) [I-1059],A (A (>75% o)),,< 100,
Cc1cc(S(=O)(=O)NCCO[C@H]2CC[C@H](CN3CCC(c4ccc5c(c4)n(C)c(=O)n5C4CCC(=O)NC4=O)CC3)CC2)ccc1Nc1ncc2cc(Cl)c(=O)n(C(C)C)c2n1 (some centres unmarked) [I-440],A (A (>75% o)),,< 100,
Cc1cc(S(=O)(=O)NCCCN2CCC(OC3CCN(c4ccc5c(c4)n(C)c(=O)n5C4CCC(=O)NC4=O)CC3)CC2)ccc1Nc1ncc2cc(Cl)c(=O)n(C3CCCC3)c2n1 (centres unmarked) [I-433],A (A (>75% o)),,< 100,
Cc1cc(S(=O)(=O)NC2CC(N3CCN(CC4CCN(c5cccc6c5n(C)c(=O)n6C5CCC(=O)NC5=O)CC4)CC3)C2)ccc1Nc1ncc(C(F)(F)F)c(N2CCCC(C)(O)C2)n1 (centres unmarked) [I-663],A (A (>75% o)),,< 100,
Cc1cc(S(=O)(=O)C2CC3(CCN(CC4CCN(c5ccc6c(N7CCC(=O)NC7=O)nn(C)c6c5F)CC4)CC3)C2)ccc1Nc1ncc2cc(Cl)c(=O)n(C3CCCC3)c2n1 [I-325],A (A (>75% o)),,< 100,
Cc1cc(S(=O)(=O)NCCCC2CCN(c3ccc(N4CCC(=O)NC4=O)cc3)CC2)ccc1Nc1ncc2cc(Cl)c(=O)n(C3CCCC3)c2n1 [I-412],C (C (>25% -50%)),,> 1000,
Cc1cc(S(=O)(=O)C2CC(N3CCC4(CC3)CN(c3cccc5c3n(C)c(=O)n5C3CCC(=O)NC3=O)C4)C2)ccc1Nc1ncc2cc(Cl)c(=O)n(C3CCCC3)c2n1 (centres unmarked) [I-35],B (B (>50% -75%)),,< 100,
CC1(O)CCCN(c2nc(Nc3ccc(S(=O)(=O)NC4CCC(CCN5CCN(c6ccc(C7CCC(=O)NC7=O)c(F)c6)CC5)CC4)cc3C(F)F)ncc2C(F)(F)F)C1 (centres unmarked) [I-1076],B (B (>50% -75%)),,100 to 500,

Compound,CDK2 degradation 14 h: Average Dmax % (14 h incubation),CDK2 degradation 14 h: Mean external-Abs DC50 (nM) (14 h incubation),DC50 (14 h incubation) [nM],Dmax [%]
Cc1cc(S(=O)(=O)NC2CCC(CN3CCN(c4c(C)cc(C5CCC(=O)NC5=O)cc4F)CC3)CC2)ccc1Nc1ncc(C(F)(F)F)c(N2CCCC(C)(O)C2)n1 (centres unmarked) [I-1146],A (A (>75% o)),,< 100,
CC1(O)CCCN(c2nc(Nc3ccc(S(=O)(=O)NC4CCC(CN5CCN(c6ccc(C7CCC(=O)NC7=O)cc6)CC5)CC4)cc3C(F)F)ncc2C(F)(F)F)C1 (centres unmarked) [I-1102],A (A (>75% o)),,< 100,
Cc1cc(S(=O)(=O)C2CC3(CCN(CC4CCN(c5cccc6c5n(C)c(=O)n6C5CCC(=O)NC5=O)CC4)CC3)C2)ccc1Nc1ncc2cc(Cl)c(=O)n(C(C)C(C)(C)O)c2n1 (centres unmarked) [I-838],D (D (<25%)),,> 1000,
Cc1cc(S(=O)(=O)C2CC3(CCN(CC4CCN(c5ccc6c(c5F)n(C)c(=O)n6C5CCC(=O)NC5=O)CC4)CC3)C2)ccc1Nc1ncc2cc(Cl)c(=O)n(C(C)C(C)(C)O)c2n1 (centres unmarked) [I-837],D (D (<25%)),,> 1000,
Cc1cc(S(=O)(=O)NC2CCC(CN3CCN(c4ccc(C5CCC(=O)NC5=O)cc4)CC3)CC2)ccc1Nc1ncc(C(F)(F)F)c(N2CCCC(C)(O)C2)n1 (centres unmarked) [I-799],A (A (>75% o)),,< 100,
"Cc1cc(S(=O)(=O)NC2CCC(CN3CCN(c4ccc([C@@H]5CCC(=O)NC5=O)c(Cl)c4)CC3)CC2)ccc1Nc1ncc(C(F)(F)F)c(N2CCC[C@](C)(O)C2)n1 (single isomer, unassigned) [I-809]",,,< 100,> 75
Cc1cc(S(=O)(=O)NC2CC(N3CCN(CC4CCN(c5ccc(C6CCC(=O)NC6=O)c(Cl)c5)CC4)CC3)C2)ccc1Nc1ncc(C(F)(F)F)c(N2CCCC(C)(O)C2)n1 (centres unmarked) [I-713],A (A (>75% o)),,< 100,
Cc1cc(S(=O)(=O)NC2CCC(CN3CCN(c4cccc5c4n(C)c(=O)n5C4CCC(=O)NC4=O)CC3)CC2)ccc1Nc1ncc(C(F)(F)F)c(N2CCCC(C)(O)C2)n1 (centres unmarked) [I-1145],A (A (>75% o)),,< 100,
Cc1cc(S(=O)(=O)C2CC3(CCN(CC4CCN(c5cccc(N6CCC(=O)NC6=O)c5)CC4)CC3)C2)ccc1Nc1ncc2cc(Cl)c(=O)n(C3CCCC3)c2n1 [I-78],D (D (<25%)),,> 1000,
Cc1cc(S(=O)(=O)C2CC3(CCN(CC4CCN(c5ccc(NC6CCC(=O)NC6=O)c6ccccc56)CC4)CC3)C2)ccc1Nc1ncc2ccc(=O)n(C(C)C)c2n1 (centres unmarked) [I-206],B (B (>50% -75%)),,100 to 500,
Cc1cc(S(=O)(=O)C2CCC3(CC2)CN(CC2CCN(c4ccc5c(c4)n(C)c(=O)n5C4CCC(=O)NC4=O)CC2)C3)ccc1Nc1ncc2cc(Cl)c(=O)n(C3CCCC3)c2n1 (centres unmarked) [I-67],A (A (>75% o)),,100 to 500,
Cc1cc(S(=O)(=O)NC2CCN(CC3CCN(c4c(F)ccc5c4n(C)c(=O)n5C4CCC(=O)NC4=O)CC3)CC2F)ccc1Nc1ncc2c(n1)N(C1CCCC(O)C1)C(=O)C21CC1 (centres unmarked) [I-949],A (A (>75% o)),,< 100,
Cc1cc(S(=O)(=O)NC(C)COC2CCC(CN3CCN(c4ccc5c(c4F)n(C)c(=O)n5C4CCC(=O)NC4=O)CC3)CC2)ccc1Nc1ncc(C(F)(F)F)c(C2CCC(C)(O)CC2)n1 (centres unmarked) [I-845],B (B (>50% -75%)),,100 to 500,
CC1(O)CCCN(c2nc(Nc3ccc(S(=O)(=O)NC4CCC(CN5CCN(c6ccc(C7CCC(=O)NC7=O)cc6F)CC5)CC4)cc3OC(F)F)ncc2C(F)(F)F)C1 (centres unmarked) [I-1111],A (A (>75% o)),,100 to 500,
"Cc1cc(S(=O)(=O)C2CCN(CCN3CCN(c4cccc5c4n(C)c(=O)n5C4CCC(=O)NC4=O)CC3)CC2)ccc1Nc1ncc2c(n1)N(C1CCCC1)C(=O)C21CC1 (centres unmarked) [I-50, 3-[4-[4-[2-[4-[4-[(7′-Cyclopentyl-6′-oxo-spiro[cyclopropane-1,5′-pyrrolo[2,3-d]pyrimidine]-2′-yl)amino]-3-methyl-phenyl]sulfonyl-1-piperidyl]ethyl]piperazin-1-yl]-3-methyl-2-oxo-benzimidazol-1-yl]piperidine-2,6-dione]",,,< 100,> 75
Cc1cc(S(=O)(=O)NCCOC2CCC(CN3CCC(c4ccc5c(c4)n(C)c(=O)n5C4CCC(=O)NC4=O)CC3)CC2)ccc1Nc1ncc(C(F)(F)F)c(C2CCC(C)(O)CC2)n1 (centres unmarked) [I-519],B (B (>50% -75%)),,< 100,
Cc1cc(S(=O)(=O)NC2CCC(CN3CCN(c4ccc5c(c4F)n(C)c(=O)n5C4CCC(=O)NC4=O)CC3)CC2)ccc1Nc1ncc(C(F)(F)F)c(N2CCCC(C)(O)C2)n1 (centres unmarked) [I-813],A (A (>75% o)),,< 100,
Cc1cc(S(=O)(=O)C2CC3(CCN(CC4CCN(c5ccc6c(c5F)n(C)c(=O)n6C5CCC(=O)NC5=O)CC4)CC3)C2)ccc1Nc1ncc(C(F)(F)F)c(N2CCC(C(C)(C)O)C2)n1 (centres unmarked) [I-840],B (B (>50% -75%)),,< 100,
